Experimental data as given in PubChem BioAssay AID248 (DTP/NCI, 2004).
“And” between values parts separate entries of the source, which are not always exact repeats. Equal entries are not always repeated. Inconclusive results and toxic doses are left out. No stated cut-off is given here; in the data, active means T/C of 150% or more; inactive means T/C below 125%.

System: L1210 leukemia ip in BDF1 mice, survival T/C
Assay: NCI In Vivo Anticancer Drug Screen. Data for tumor model L1210 Leukemia (intraperitoneal) in B6D2F1 (BDF1) mice
Conditions: endpoint: mean survival time, higher = longer survival
How it was run: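 Mice bearing the transplanted tumor received compound or vehicle. Survival of the treated group was divided by that of the vehicle-treated control group to give the ratio.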

[1] = dose: 10.0 mg/kg/injection, schedule: Q01DX001 (ip), vehicle: saline
[2] = dose: 20.0 mg/kg/injection, schedule: Q01DX001 (ip), vehicle: saline
[3] = dose: 25.0 mg/kg/injection, schedule: Q01DX009 (ip), vehicle: Klucel (hydroxypropylcellulose) (HPC)
[4] = dose: 40.0 mg/kg/injection, schedule: Q01DX001 (ip), vehicle: saline
[5] = dose: 50.0 mg/kg/injection, schedule: Q01DX009 (ip), vehicle: Klucel (hydroxypropylcellulose) (HPC)
[6] = dose: 100.0 mg/kg/injection, schedule: Q01DX001 (ip), vehicle: carboxymethylcellulose (CMC)
[7] = dose: 100.0 mg/kg/injection, schedule: Q01DX009 (ip), vehicle: saline
[8] = dose: 100.0 mg/kg/injection, schedule: Q04DX003 (ip), vehicle: Klucel (hydroxypropylcellulose) (HPC)
[9] = dose: 200.0 mg/kg/injection, schedule: Q01DX009 (ip), vehicle: saline
[10] = dose: 200.0 mg/kg/injection, schedule: Q04DX003 (ip), vehicle: Klucel (hydroxypropylcellulose) (HPC)
[11] = dose: 400.0 mg/kg/injection, schedule: Q04DX003 (ip), vehicle: Klucel (hydroxypropylcellulose) (HPC)
[12] = dose: 100.0 mg/kg/injection, schedule: Q01DX009 (ip), vehicle: Klucel (hydroxypropylcellulose) (HPC)
[13] = dose: 200.0 mg/kg/injection, schedule: Q01DX009 (ip), vehicle: Klucel (hydroxypropylcellulose) (HPC)
[14] = dose: 400.0 mg/kg/injection, schedule: Q01DX009 (ip), vehicle: Klucel (hydroxypropylcellulose) (HPC)
[15] = dose: 50.0 mg/kg/injection, schedule: Q01DX001 (ip), vehicle: saline
[16] = dose: 100.0 mg/kg/injection, schedule: Q01DX001 (ip), vehicle: saline
[17] = dose: 200.0 mg/kg/injection, schedule: Q01DX001 (ip), vehicle: carboxymethylcellulose (CMC)
[18] = dose: 200.0 mg/kg/injection, schedule: Q01DX001 (ip), vehicle: saline
[19] = dose: 400.0 mg/kg/injection, schedule: Q01DX001 (ip), vehicle: carboxymethylcellulose (CMC)
[20] = dose: 400.0 mg/kg/injection, schedule: Q01DX001 (ip), vehicle: saline
[21] = dose: 100.0 mg/kg/injection, schedule: Q04DX003 (ip), vehicle: saline with Tween-80
[22] = dose: 200.0 mg/kg/injection, schedule: Q04DX003 (ip), vehicle: saline with Tween-80
[23] = dose: 400.0 mg/kg/injection, schedule: Q04DX003 (ip), vehicle: saline with Tween-80
[24] = dose: 100.0 mg/kg/injection, schedule: Q01DX001 (ip), vehicle: saline with Tween-80
[25] = dose: 200.0 mg/kg/injection, schedule: Q01DX001 (ip), vehicle: saline with Tween-80
[26] = dose: 400.0 mg/kg/injection, schedule: Q01DX001 (ip), vehicle: saline with Tween-80
[27] = dose: 100.0 mg/kg/injection, schedule: Q01DX001 (ip), vehicle: Klucel (hydroxypropylcellulose) (HPC)
[28] = dose: 200.0 mg/kg/injection, schedule: Q01DX001 (ip), vehicle: Klucel (hydroxypropylcellulose) (HPC)
[29] = dose: 400.0 mg/kg/injection, schedule: Q01DX001 (ip), vehicle: Klucel (hydroxypropylcellulose) (HPC)

Measured: T/C

O=C1OC2CC3CC1C2C3 (configuration not stated)
inactive: dose: 5.0 mg/kg/injection, schedule: Q01DX001 (ip), vehicle: other 91 % of control | dose: 10.0 mg/kg/injection, schedule: Q01DX001 (ip), vehicle: other 91 % of control | [1] 101 % of control | dose: 12.5 mg/kg/injection, schedule: Q01DX009 (ip), vehicle: Klucel (hydroxypropylcellulose) (HPC) 98 % of control | dose: 20.0 mg/kg/injection, schedule: Q01DX001 (ip), vehicle: other 95 % of control | [2] 105 % of control | [3] 96 % of control | dose: 25.0 mg/kg/injection, schedule: Q04DX003 (ip), vehicle: Klucel (hydroxypropylcellulose) (HPC) 95 % of control | dose: 40.0 mg/kg/injection, schedule: Q01DX001 (ip), vehicle: other 94 % of control | [4] 99 % of control | dose: 50.0 mg/kg/injection, schedule: Q01DX001 (ip), vehicle: carboxymethylcellulose (CMC) 108 % of control | [5] 88 % of control | dose: 50.0 mg/kg/injection, schedule: Q04DX003 (ip), vehicle: Klucel (hydroxypropylcellulose) (HPC) 88 % of control | dose: 75.0 mg/kg/injection, schedule: Q01DX001 (ip), vehicle: acetone 97 % of control | [6] 108 % of control

CCCCCCCCCC(=O)NO
inactive: dose: 25.0 mg/kg/injection, schedule: Q04DX003 (ip), vehicle: saline 102 % of control | dose: 50.0 mg/kg/injection, schedule: Q04DX003 (ip), vehicle: saline 98 % of control | dose: 100.0 mg/kg/injection, schedule: Q01DX001 (ip), vehicle: other 97 % of control | [7] 87 % of control | [8] 93 % of control | dose: 100.0 mg/kg/injection, schedule: Q04DX003 (ip), vehicle: saline 86 % of control and 92 % of control | dose: 200.0 mg/kg/injection, schedule: Q01DX001 (ip), vehicle: other 97 % of control | [9] 98 % of control | [10] 93 % of control | dose: 200.0 mg/kg/injection, schedule: Q04DX003 (ip), vehicle: saline 88 % of control | dose: 400.0 mg/kg/injection, schedule: Q01DX001 (ip), vehicle: other 95 % of control | [11] 91 % of control | dose: 400.0 mg/kg/injection, schedule: Q04DX003 (ip), vehicle: saline 86 % of control

Cc1ccc(NC(N)=S)nc1
inactive: [8] 100 % of control | [10] 94 % of control | [11] 99 % of control

COC(=O)C1CC2C(Cl)=C(Cl)C1(Cl)C2(Cl)Cl (configuration not stated)
inactive: [7] 107 % of control | [9] 123 % of control | dose: 400.0 mg/kg/injection, schedule: Q01DX009 (ip), vehicle: saline 102 % of control

CCOC(CCc1c(-c2ccccc2)nc(NC(C)=O)[nH]c1=O)OCC
inactive: [12] 105 % of control | [13] 100 % of control | [14] 92 % of control

O=C(OC1CCCCCCC1OC(=O)c1ccc([N+](=O)[O-])cc1)c1ccc([N+](=O)[O-])cc1 (configuration not stated)
inactive: dose: 75.0 mg/kg/injection, schedule: Q01DX001 (ip), vehicle: carboxymethylcellulose (CMC) 93 % of control | dose: 150.0 mg/kg/injection, schedule: Q01DX001 (ip), vehicle: carboxymethylcellulose (CMC) 91 % of control | dose: 300.0 mg/kg/injection, schedule: Q01DX001 (ip), vehicle: carboxymethylcellulose (CMC) 91 % of control

c1ccc(P(OCCCCOP(c2ccccc2)c2ccccc2)c2ccccc2)cc1
inactive: [15] 95 % of control | [6] 103 % of control | [16] 97 % of control | [17] 114 % of control | [18] 86 % of control | [19] 103 % of control | [20] 95 % of control

Nc1ccc(S(=O)(=O)Nc2ccc(C(=O)O)cc2)cc1
inactive: [21] 98 % of control | [22] 98 % of control | [23] 98 % of control

Nc1nccc(Cl)n1
inactive: dose: 12.5 mg/kg/injection, schedule: Q01DX009 (ip), vehicle: saline with Tween-80 89 % of control | dose: 25.0 mg/kg/injection, schedule: Q01DX009 (ip), vehicle: saline with Tween-80 92 % of control | dose: 50.0 mg/kg/injection, schedule: Q01DX009 (ip), vehicle: saline with Tween-80 92 % of control

CC[N+](C)(C)CCC#N
inactive: [1] 95 % of control | [2] 101 % of control | [4] 101 % of control

CC(=O)Oc1c2ccsc2cc2sccc12
inactive: [24] 96 % of control | [25] 94 % of control | [26] 94 % of control

CC(C)(C)c1cc(/C=N/NC(=O)CC2CCCCC2)cc(C(C)(C)C)c1O
inactive: dose: 100.0 mg/kg/injection, schedule: Q01DX009 (ip), vehicle: saline with Tween-80 92 % of control | dose: 200.0 mg/kg/injection, schedule: Q01DX009 (ip), vehicle: saline with Tween-80 92 % of control | dose: 400.0 mg/kg/injection, schedule: Q01DX009 (ip), vehicle: saline with Tween-80 97 % of control

Oc1ccccc1C=Nc1ccc(N=Cc2ccccc2O)cc1
inactive: [16] 101 % of control | [18] 95 % of control | [20] 106 % of control

COC(=O)C1C2CC/C=C\CCC21 (configuration not stated)
inactive: [12] 91 % of control | [13] 87 % of control | [14] 91 % of control

COc1ccc(NC(=O)Oc2ccccc2-c2ccccc2)cc1
inactive: [21] 91 % of control | [22] 91 % of control | [23] 86 % of control

COC(=S)Nc1cccc(OC(=O)NC(C)C)c1
inactive: [24] 97 % of control | [25] 95 % of control | [26] 100 % of control

Cc1[nH]nc2c(=O)[nH]c3ccccc3c12
inactive: dose: 18.75 mg/kg/injection, schedule: Q01DX001 (ip), vehicle: Klucel (hydroxypropylcellulose) (HPC) 89 % of control | dose: 37.5 mg/kg/injection, schedule: Q01DX001 (ip), vehicle: Klucel (hydroxypropylcellulose) (HPC) 86 % of control

ClCCCSCCCCl
inactive: [15] 103 % of control | [16] 112 % of control | [18] 124 % of control | [20] 95 % of control

O=S1(=O)CC(c2ccc(Cl)cc2)Nc2ccccc21 (configuration not stated)
inactive: [27] 87 % of control | [12] 90 % of control | [8] 103 % of control | [28] 93 % of control | [13] 90 % of control | [10] 100 % of control | [29] 93 % of control | [14] 93 % of control | [11] 92 % of control

Cc1ccc(C2OCC(CCl)O2)cc1 (configuration not stated)
inactive: dose: 222.0 mg/kg/injection, schedule: Q01DX Z (ip), vehicle: methylcellulose (MC) 108 % of control | dose: 333.0 mg/kg/injection, schedule: Q01DX Z (ip), vehicle: methylcellulose (MC) 96 % of control | dose: 500.0 mg/kg/injection, schedule: Q01DX Z (ip), vehicle: methylcellulose (MC) 102 % of control

O=C(Cc1ccccc1)Nc1cccc2ccccc12
inactive: [12] 101 % of control | [13] 95 % of control | [14] 91 % of control

COC(=O)C1C2C=CC(C2=C(c2ccccc2)c2ccccc2)C1C(=O)OC (configuration not stated)
inactive: [27] 98 % of control | [12] 96 % of control | [8] 107 % of control | [28] 97 % of control | [13] 102 % of control | [10] 100 % of control | [29] 92 % of control | [14] 96 % of control | [11] 100 % of control

CC(C)(C)C1CCCC(=O)CC1 (configuration not stated)
inactive: [15] 102 % of control

CC1=NN(c2ccccc2)C(=O)C1N=Nc1ccc(S(N)(=O)=O)cc1 (configuration not stated)
inactive: [6] 95 % of control | [17] 93 % of control | [19] 93 % of control

CSc1nc(N)nc(N)n1
inactive: [3] 97 % of control | [5] 100 % of control | [12] 93 % of control and 90 % of control | [13] 98 % of control
